Source: US20020150582A1, “Method of treating or inhibiting cellular injury or cell death” (priority 2001, published 2002)
Marks after values point to notes of the source that are not given here.

How the values were obtained:
[1] = test system: open chest rats in the absence of myocardial ischemia; experiment: Hemodynamic parameters in open chest rats in the absence of myocardial ischemia (first test procedure); type: in vivo, rat; details: for +dP/dt / Heart Rate / Mean BP / LVPdev: percent change from pre-drug baseline 15 minutes after drug administration
Method: Male Sprague-Dawley rats weighing 505±5 g were anesthetized with sodium pentobarbital (50 mg/kg I.P.). An endotracheal tube was secured in place and connected to a small-animal respirator (Harvard Apparatus, Model 683, South Natick, Mass.) set on 100 breaths/min, with a tidal volume of 2-3 mnL/breath. Body temperature was maintained using a heating pad with circulating warm water (K-model 100, Baxter Laboratories). A left thoracotomy was performed, the heart exposed and the pericardium removed. Left ventricular pressure was measured using a saline-filled polyethylene catheter attached to an angiocatheter (20 Gauge) inserted through the apex of the heart and connected to a P23 ID Statham/Gould pressure transducer. Arterial pressure was monitored via a saline-filled polyethylene catheter (PE 50) introduced into the left carotid artery. The right jugular vein was also cannulated with a polyethylene catheter (PE 50) for IV drug infusions and volume repletion (0.9% NaCl). Subcutaneous needles were positioned in the limbs for ECG recordings. […]

[2] = test system: isolated feline ventricular myocytes; details: 25 μM, soon after exposure
[3] = test system: Ca+2 current (ICa-L); experiment: L-type Ca2+ current recording in isolated ventricular myocytes (patch clamp); type: cell-based, cat
Method: The latter process was performed three times.
Patch-clamp current and voltage recordings were made with the ruptured patch whole-cell configuration at 36-37° C. (14). For studies on L-type Ca^2+ currents, cells were bathed with modified Tyrode's containing (in mM): 157 TEA-Cl, 5 CaCl2, 0.5 MgCl2, and 10 HEPES. Electrode internal solution contained (in mM): 10 L-Glutamic Acid, 20 CsCl, 10 EGTA, 1 MgCl2, 1 CaCl2, 20 HEPES, and 5 ATP-Mg2; pH adjusted with CsOH. In all of the studies, electrode resistance was measured to be 2-3.5 MΩ. The reference zero potential was adjusted in the bath before forming seals. Recordings were performed with an Axon Instruments 200B amplifier (Axon Instruments, Culver City, Calif. USA) interfacing a DigiData 1200 DA/AD acquisition system. Ionic currents were evoked by depolarizing voltage step (1 sec-long) from −30 to +60 mV, in 10-mV increments, from a holding potential of −40 mV delivered at the frequency of 1 Hz. Action potentials were elicited at a frequency of 1 Hz by injection of brief depolarizing current pulses. Software used in data acquisition and analysis was pClamp v.6.04 and Origin v 5.0 (Microcal Software, Northampton, Mass.).

[4] = test system: Adult human kidney proximal tubular (HK-2) cells; details: HK-2 cells cultured for 0-20 hr; necrotic form of cell death; cited from earlier work
[5] = test system: TNF; experiment: Serum TNF (ELISA) in open chest rats undergoing myocardial ischemia; type: in vivo, rat; details: for serum concentration of TNF: mean ± sem
Method: Male Sprague-Dawley rats weighing 505±5 g were anesthetized with sodium pentobarbital (50 mg/kg I.P.). An endotracheal tube was secured in place and connected to a small-animal respirator (Harvard Apparatus, Model 683, South Natick, Mass.) set on 100 breaths/min, with a tidal volume of 2-3 mnL/breath. Body temperature was maintained using a heating pad with circulating warm water (K-model 100, Baxter Laboratories). A left thoracotomy was performed, the heart exposed and the pericardium removed. Left ventricular pressure was measured using a saline-filled polyethylene catheter attached to an angiocatheter (20 Gauge) inserted through the apex of the heart and connected to a P23 ID Statham/Gould pressure transducer. Arterial pressure was monitored via a saline-filled polyethylene catheter (PE 50) introduced into the left carotid artery. The right jugular vein was also cannulated with a polyethylene catheter (PE 50) for IV drug infusions and volume repletion (0.9% NaCl). Subcutaneous needles were positioned in the limbs for ECG recordings.
(§1) In the second test procedure, the main coronary artery of rats undergoing coronary occlusion was located and occluded close to its origin using a 5-0 suture passed underneath the vessel that could be tightened over a short section of PE tubing (PE 20) to initiate regional ischemia. Reperfusion was reinstated by removing the short segment of PE tubing.
Blood samples were collected in syringes in the absence of any anticoagulant and immediately placed in Microtainer® serum separator tubes (Becton Dickinson) and centrifuged at 2000 g for 6 minutes. The serum was removed, frozen immediately, and stored at −20° C. until the analysis could be performed. The concentration of serum TNF collected at preselected time points was determined for individual rats by enzyme-linked immunosorbent assay (ELISA), utilizing the Factor-Test-X (Genzyme Inc, Cambridge, Mass., Cat #80-3905-01) according to the manufacturer's instructions. Briefly, 100 μL of serum was diluted 1:2 in 0.1% bovine serum albumin/phosphate buffered saline and added in duplicate to a 96-well microtiter plate. A standard curve was generated by plotting the concentrations of rat TNF standards versus their absorbances. […] The detection limit of this assay was 10 pg/mL. Additionally, the manufacturer has determined that this ELISA is highly specific for rat TNF.

[6] = test system: open chest rats undergoing myocardial ischemia/reperfusion; experiment: Survival of open chest rats undergoing myocardial ischemia/reperfusion (second test procedure); type: in vivo, rat; details: for percent survival: 3 mg/kg iv
[7] = test system: open chest rats undergoing myocardial ischemia/reperfusion; experiment: Determination of infarct size (TTC staining); type: in vivo, rat; details: 3 mg/kg i.v.
Method: as §1
The heart was removed and sliced in five to six coronal sections, which were immersed in 1% triphenyltetrazolium chloride (TTC) for 10-15 minutes. The heart sections were removed, blotted dry and traced onto acetate sheets. The areas of infarction were clearly demarcated by a pale appearance in the ischemic zone, and a brick red color of non-infarcted myocardium. The areas of all sections were determined by planimetric methods and infarct area was expressed as a percentage of the left ventricle.

[8] = 1.0 mg/kg iv (second dose, after 0.3 mg/kg iv)
[9] = following infusion (0.1+0.3 mg/kg)
[10] = 0.1 mg/kg iv (first dose), mean ± sem
[11] = 0.3 mg/kg iv (second dose, after 0.1 mg/kg iv)

CCCCCCCCCCCCC/C=C/[C@@H](O)[C@@H](N)CO [Sphingosine]
+dP/dt ([1]; 0.3 mg/kg iv (first dose)): −33 ± 12% | Heart Rate ([1]; 0.3 mg/kg iv (first dose)): −4 ± 4% | Mean BP ([1]; 0.3 mg/kg iv (first dose)): −24 ± 12% | +dP/dt [1, 8]: −32 ± 18% | Heart Rate [1, 8]: −18 ± 1% | LVPdev [1, 8]: −24 ± 14% | Mean BP [1, 8]: −17 ± 19% | +dP/dt reduced from baseline [1, 9]: 33±12% | LVP depressed from baseline [1, 9]: 24±8% | myocardial cell death (morphology, lack of viability) [2]: lead to myocardial cell death | block of ICa-L ([3]; 2.5 μM): 17±7% | block of ICa-L ([3]; 25 μM): 75±4% | concentration inducing rapid, concentration-dependent cytotoxicity [4]: ≥ 10 µM

Sphingomyelin
+dP/dt [1, 10]: 1 ± 13% | Heart Rate [1, 10]: 7 ± 9% | LVPdev [1, 10]: 3 ± 11% | Mean BP [1, 10]: −3 ± 17% | +dP/dt [1, 11]: 6 ± 15% | Heart Rate [1, 11]: 8 ± 10% | LVPdev [1, 11]: 4 ± 12% | Mean BP [1, 11]: 2 ± 2%

Etanercept
serum concentration of TNF ([5]; 0 min (end of ischemia)): 2299 ± 357 pg/mL | serum concentration of TNF ([5]; 30 min reperfusion): 2057 ± 349 pg/mL | serum concentration of TNF ([5]; 60 min reperfusion): 1592 ± 258 pg/mL | serum concentration of TNF ([5]; 90 min reperfusion): 1108 ± 279 pg/mL | serum concentration of TNF ([5]; 120 min reperfusion): 721 ± 209 pg/mL | serum concentration of TNF ([5]; 150 min reperfusion): 580 ± 193 pg/mL | effect on TNFα spike in concentration in response to vascular occlusion ([5]; at 0 minutes): significantly reduced | serum concentration of TNF ([5]; −30 min (baseline)): 0 ± 0 pg/mL | mortality resulting from myocardial ischemia/reperfusion ([6]; 3 mg/kg i.v. administered immediately before occlusion): significantly reduced mortality | rats dead ([6]; 3 mg/kg i.v., t=90 minutes of reperfusion): 1 out of 9 | percent survival ([6]; 0 min (end of ischemia)): 100% | percent survival ([6]; 30 min reperfusion): 100% | percent survival ([6]; 60 min reperfusion): 100% | percent survival ([6]; 90 min reperfusion): 89% | percent survival ([6]; 120 min reperfusion): 89* percent | percent survival ([6]; 150 min reperfusion): 88* percent | percent survival ([6]; −30 min (baseline)): 100% | Infarct size, expressed as a percentage of the left ventricle [7]: 24±3%
